Source: the supplement of paper PMC11208160

Experiment: recombinant barcode read abundance after kanamycin selection (control-corrected) (log10(CPM+1)); higher = more efficient recombination; sequences stand for … in AGTGCAGAGAAAATCGGCCAGTTTTCTCTGCCTGCAGTCCGCATGCCGT…ATTTATGCAGCGGACTGCCTTTCTCCCAAAGTGATAAACCGGACAGTATCATGGACCGGTTTTCCCGGTAATCCGTATTTGCAAGGTTGGTTTCACT; site = the 11-nt target
Procedure: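 Same pooled E. coli target screen (IS621 bridge recombinase, kanamycin selection, control-corrected CPM, mean of 2 biological replicates). Here the two core-binding nucleotides of the LTG and RTG of the bridge RNA target-binding loop are mutated. Target and donor CT cores are held constant, and the other 9 guide positions match the target. The target is read from the library oligo sequence. Molecule = full bridge RNA written as DNA: nt 1-80 from the library oligo, rest WT scaffold.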
In the case of “AAACACAACTGGGTTCTAACCTGTTGCCTGT [AAACACACTAG_LTGcore_AC_RTGcore_AC] (site AAACACACTAG) (LTG core: AC, RTG core: AC)”, the “recombinant barcode read abundance (log10)” value is reported as 0.0446.
For “AAACACAATTGGGTTCTAACCTGTTGCCTAT [AAACACACTAG_LTGcore_AT_RTGcore_AT] (site AAACACACTAG) (LTG core: AT, RTG core: AT)”, the “recombinant barcode read abundance (log10)” value was 0.209.
In the case of “AAACACACTTGGGTTCTAACCTGTTGCCTCT [AAACACACTAG_LTGcore_CT_RTGcore_AG] (site AAACACACTAG) (LTG core: CT, RTG core: AG)”, the “recombinant barcode read abundance (log10)” value is reported as 2.46.
With “AAACACACTTGGGTTCTAACCTGTTGCCTGA [AAACACACTAG_LTGcore_CT_RTGcore_TC] (site AAACACACTAG) (LTG core: CT, RTG core: TC)” the “recombinant barcode read abundance (log10)” value was 1.19.
With “AAACACACTTGGGTTCTAACCTGTTGCCTTC [AAACACACTAG_LTGcore_CT_RTGcore_GA] (site AAACACACTAG) (LTG core: CT, RTG core: GA)” the “recombinant barcode read abundance (log10)” value was 0.477.
In the case of “AAACACACTTGGGTTCTAACCTGTTGCCTTG [AAACACACTAG_LTGcore_CT_RTGcore_CA] (site AAACACACTAG) (LTG core: CT, RTG core: CA)”, the “recombinant barcode read abundance (log10)” value is reported as 0.248.
For “AAACACAGATGGGTTCTAACCTGTTGCCTTC [AAACACACTAG_LTGcore_GA_RTGcore_GA] (site AAACACACTAG) (LTG core: GA, RTG core: GA)”, the “recombinant barcode read abundance (log10)” value was 0.152.
In the case of “AAACACAGCTGGGTTCTAACCTGTTGCCTAG [AAACACACTAG_LTGcore_GC_RTGcore_CT] (site AAACACACTAG) (LTG core: GC, RTG core: CT)”, the “recombinant barcode read abundance (log10)” value is reported as 0.0255.

Experiment: recombinant barcode read abundance after kanamycin selection (control-corrected) (log10(CPM+1)); higher = more efficient recombination; sequences stand for … in AGTGCAGAGAAAATCGGCCAGTTTTCTCTGCCTGCAGTCCGCATGCCGT…AGATTTATGCAGCGGACTGCCTTTCTCCCAAAGTGATAAACCGGACAGTATCATGGACCGGTTTTCCCGGTAATCCGTATTTGCAAGGTTGGTTTCACT; site = the 11-nt target
Summary of the method: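 The screen was pooled in E. coli and paired targets with IS621 bridge RNA target-binding loops. Recombination efficiency is taken from barcode counts per million at recombinant junctions, averaged and adjusted against the control. Values, in the form log10(CPM+1), come from duplicate plating on chloramphenicol/ampicillin LB agar or on chloramphenicol/ampicillin/kanamycin with 0.1 mM IPTG.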
With “TTGAGGCCTTGGGTTCTAACCTGTTGCGG (site TCGAGTCCTCC)” the “recombinant barcode read abundance (log10)” value was 0.141.
With “TTGAGGCCTTGGGTTCTAACCTGTTGCGG (site TTGAGGCCTCC)” the “recombinant barcode read abundance (log10)” value was 2.39.
With “TTGAGTGCTTGGGTTCTAACCTGTTGCCT (site TTGAATGCTAG)” the “recombinant barcode read abundance (log10)” value was 0.259.
With “TTGAGTGCTTGGGTTCTAACCTGTTGCCT (site TTGACTGCTAG)” the “recombinant barcode read abundance (log10)” value was 0.0508.
In the case of “TTGAGTGCTTGGGTTCTAACCTGTTGCCT (site TTGAGTGCTAG)”, the “recombinant barcode read abundance (log10)” value is reported as 0.804.
In the case of “TTGAGTGCTTGGGTTCTAACCTGTTGCCT (site TTGATTGCTAG)”, the “recombinant barcode read abundance (log10)” value is reported as 0.254.
In the case of “TTGATTGCTTGGGTTCTAACCTGTTGCCT (site TTGAATGCTAG)”, the “recombinant barcode read abundance (log10)” value is reported as 0.0762.
With “TTGATTGCTTGGGTTCTAACCTGTTGCCT (site TTGACTGCTAG)” the “recombinant barcode read abundance (log10)” value was 0.0306.
With “TTGATTGCTTGGGTTCTAACCTGTTGCCT (site TTGAGTGCTAG)” the “recombinant barcode read abundance (log10)” value was 0.425.
With “TTGATTGCTTGGGTTCTAACCTGTTGCCT (site TTGATTGCTAG)” the “recombinant barcode read abundance (log10)” value was 0.497.
With “TTGCGTGCTTGGGTTCTAACCTGTTGCTT (site TTGCGAGCTAT)” the “recombinant barcode read abundance (log10)” value was 0.27.
In the case of “TTGCGTGCTTGGGTTCTAACCTGTTGCTT (site TTGCGTGCTAA)”, the “recombinant barcode read abundance (log10)” value is reported as 0.518.
In the case of “TTGCTAGCTTGGGTTCTAACCTGTTGCGG (site GGAACTACTGT)”, the “recombinant barcode read abundance (log10)” value is reported as 0.0762.
In the case of “TTGCTAGCTTGGGTTCTAACCTGTTGCGG (site TTGCTAGCTCC)”, the “recombinant barcode read abundance (log10)” value is reported as 1.56.
With “TTGGAAGCTTGGGTTCTAACCTGTTGCCT (site TTGGAAGCTAG)” the “recombinant barcode read abundance (log10)” value was 2.1.
For “TTGGAAGCTTGGGTTCTAACCTGTTGCCT (site TTGGCAGCTAG)”, the “recombinant barcode read abundance (log10)” value was 0.0513.
For “TTGGAAGCTTGGGTTCTAACCTGTTGCCT (site TTGGGAGCTAG)”, the “recombinant barcode read abundance (log10)” value was 0.541.
For “TTGGAAGCTTGGGTTCTAACCTGTTGCCT (site TTGGTAGCTAG)”, the “recombinant barcode read abundance (log10)” value was 2.19.
In the case of “TTGGAGGCTTGGGTTCTAACCTGTTGCCT (site AGCAGTACTTA)”, the “recombinant barcode read abundance (log10)” value is reported as 0.0388.
In the case of “TTGGAGGCTTGGGTTCTAACCTGTTGCCT (site TTGGAGGCTAG)”, the “recombinant barcode read abundance (log10)” value is reported as 1.45.
With “TTGGATCCTTGGGTTCTAACCTGTTGCCT (site TTGGATCCTAA)” the “recombinant barcode read abundance (log10)” value was 0.382.
For “TTGGATCCTTGGGTTCTAACCTGTTGCCT (site TTGGATCCTAG)”, the “recombinant barcode read abundance (log10)” value was 2.31.
With “TTGGCGCCTTGGGTTCTAACCTGTTGCCT (site TCGGCTCCTAG)” the “recombinant barcode read abundance (log10)” value was 0.0935.
For “TTGGCGCCTTGGGTTCTAACCTGTTGCCT (site TTGGCGCCTAG)”, the “recombinant barcode read abundance (log10)” value was 0.529.
With “TTGGGAGCTTGGGTTCTAACCTGTTGCCT (site TTGGAAGCTAG)” the “recombinant barcode read abundance (log10)” value was 0.984.
For “TTGGGAGCTTGGGTTCTAACCTGTTGCCT (site TTGGCAGCTAG)”, the “recombinant barcode read abundance (log10)” value was 0.11.
For “TTGGGAGCTTGGGTTCTAACCTGTTGCCT (site TTGGGAGCTAG)”, the “recombinant barcode read abundance (log10)” value was 2.26.
With “TTGGGAGCTTGGGTTCTAACCTGTTGCCT (site TTGGTAGCTAG)” the “recombinant barcode read abundance (log10)” value was 0.442.
In the case of “TTGGGCGCTTGGGTTCTAACCTGTTGCCT (site TTGGACGCTAG)”, the “recombinant barcode read abundance (log10)” value is reported as 0.0866.
For “TTGGGCGCTTGGGTTCTAACCTGTTGCCT (site TTGGCCGCTAG)”, the “recombinant barcode read abundance (log10)” value was 0.154.
For “TTGGGCGCTTGGGTTCTAACCTGTTGCCT (site TTGGGCGCTAG)”, the “recombinant barcode read abundance (log10)” value was 0.643.
In the case of “TTGGGCGCTTGGGTTCTAACCTGTTGCCT (site TTGGTCGCTAG)”, the “recombinant barcode read abundance (log10)” value is reported as 0.0335.
For “TTGGTCACTTGGGTTCTAACCTGTTGCCT (site TTGGACACTAG)”, the “recombinant barcode read abundance (log10)” value was 0.358.
In the case of “TTGGTCACTTGGGTTCTAACCTGTTGCCT (site TTGGCCACTAG)”, the “recombinant barcode read abundance (log10)” value is reported as 0.309.
With “TTGGTCACTTGGGTTCTAACCTGTTGCCT (site TTGGGCACTAG)” the “recombinant barcode read abundance (log10)” value was 0.205.
For “TTGGTCACTTGGGTTCTAACCTGTTGCCT (site TTGGTCACTAG)”, the “recombinant barcode read abundance (log10)” value was 2.1.
With “TTGGTCGCTTGGGTTCTAACCTGTTGCCT (site TTGGACGCTAG)” the “recombinant barcode read abundance (log10)” value was 0.0736.
For “TTGGTCGCTTGGGTTCTAACCTGTTGCCT (site TTGGCCGCTAG)”, the “recombinant barcode read abundance (log10)” value was 1.4.
For “TTGGTCGCTTGGGTTCTAACCTGTTGCCT (site TTGGGCGCTAG)”, the “recombinant barcode read abundance (log10)” value was 0.085.
In the case of “TTGGTCGCTTGGGTTCTAACCTGTTGCCT (site TTGGTCGCTAG)”, the “recombinant barcode read abundance (log10)” value is reported as 1.71.
In the case of “TTGTAGACTTGGGTTCTAACCTGTTGCCT (site TTGATGACTAG)”, the “recombinant barcode read abundance (log10)” value is reported as 0.484.
For “TTGTAGACTTGGGTTCTAACCTGTTGCCT (site TTGTAGACTAG)”, the “recombinant barcode read abundance (log10)” value was 1.22.
For “TTGTGTTCTTGGGTTCTAACCTGTTGCTA (site GTGTGTTCTTG)”, the “recombinant barcode read abundance (log10)” value was 0.0284.
In the case of “TTGTGTTCTTGGGTTCTAACCTGTTGCTA (site TTGTGTTCTTA)”, the “recombinant barcode read abundance (log10)” value is reported as 0.465.
